Data: patent publication EP4741392A1, “1H-PYRAZOLO[4,3-C]PYRIDINE COMPOUND, AND COMPOSITION THEREOF AND USE THEREOF” (Shenzhen TargetRx Co., Ltd., priority 2023, dated 2025)

Columns and labels:
Assay type in all cases: biochemical
TEC = molecular target: T1, TEC (Homo sapiens, UniProt P42680); experiment: Kinase activity inhibition assay (HTRF TK Kit), selectivity
T1 construct: purchased Carna 08-182
T1 sequence (P42680 1-631): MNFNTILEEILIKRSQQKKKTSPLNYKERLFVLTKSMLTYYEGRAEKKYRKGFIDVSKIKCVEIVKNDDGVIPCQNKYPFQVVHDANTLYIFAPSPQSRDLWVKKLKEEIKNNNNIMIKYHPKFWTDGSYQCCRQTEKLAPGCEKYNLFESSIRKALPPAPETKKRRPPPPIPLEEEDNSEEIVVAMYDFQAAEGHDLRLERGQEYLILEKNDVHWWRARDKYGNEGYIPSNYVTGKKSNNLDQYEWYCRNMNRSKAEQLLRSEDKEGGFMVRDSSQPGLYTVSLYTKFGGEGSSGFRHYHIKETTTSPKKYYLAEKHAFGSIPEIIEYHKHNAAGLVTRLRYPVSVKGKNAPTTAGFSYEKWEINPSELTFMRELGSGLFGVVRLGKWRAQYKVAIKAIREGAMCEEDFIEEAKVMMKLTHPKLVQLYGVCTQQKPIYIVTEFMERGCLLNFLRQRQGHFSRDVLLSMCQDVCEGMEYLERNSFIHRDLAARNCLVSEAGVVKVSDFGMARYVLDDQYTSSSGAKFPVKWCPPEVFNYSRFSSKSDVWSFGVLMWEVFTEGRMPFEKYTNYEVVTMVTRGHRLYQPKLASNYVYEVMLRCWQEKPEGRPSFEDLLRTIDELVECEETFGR
In short: (§1)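 IC50 was fitted (four-parameter logistic) from % inhibition computed from the 665/620 nm TR-FRET ratio, with no-kinase wells as blank and DMSO-plus-kinase wells as positive control. Compound, substrate/ATP and enzyme were combined on ice and reacted at room temperature. Biotin-substrate phosphorylation was detected with cryptate antibody/XL665 after 1 h.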

ITK = molecular target: T2, ITK (Homo sapiens, UniProt Q08881); experiment: as above
T2 construct: purchased Carna 08-181
T2 sequence (Q08881 1-620): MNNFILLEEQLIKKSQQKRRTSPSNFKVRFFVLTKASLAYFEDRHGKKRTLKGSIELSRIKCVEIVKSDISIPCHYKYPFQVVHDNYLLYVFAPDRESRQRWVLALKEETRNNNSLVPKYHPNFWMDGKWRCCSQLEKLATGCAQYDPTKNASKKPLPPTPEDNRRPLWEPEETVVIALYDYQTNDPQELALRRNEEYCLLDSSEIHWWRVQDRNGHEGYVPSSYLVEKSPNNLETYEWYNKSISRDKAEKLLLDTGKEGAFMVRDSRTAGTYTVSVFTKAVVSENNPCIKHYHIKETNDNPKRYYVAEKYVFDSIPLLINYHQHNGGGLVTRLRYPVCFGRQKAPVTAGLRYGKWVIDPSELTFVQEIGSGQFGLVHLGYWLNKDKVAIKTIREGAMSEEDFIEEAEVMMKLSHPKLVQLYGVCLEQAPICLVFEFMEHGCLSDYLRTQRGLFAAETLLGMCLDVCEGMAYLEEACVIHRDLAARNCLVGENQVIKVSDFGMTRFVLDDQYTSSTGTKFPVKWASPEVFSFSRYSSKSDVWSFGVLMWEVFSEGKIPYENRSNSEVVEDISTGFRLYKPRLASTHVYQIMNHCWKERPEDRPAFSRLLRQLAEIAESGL
In short: as §1

EGFR = molecular target: T3, EGFR (Homo sapiens, UniProt P00533); experiment: as above
T3 construct: purchased Carna 08-115
In short: as §1

BTK C481S = molecular target: T4, BTK C481S (Homo sapiens, UniProt Q06187, C481S); experiment: Kinase activity inhibition assay (HTRF TK Kit)
T4 construct: purchased Carna 08-547
In short: as §1

BTK kinase = molecular target: T5, BTK kinase (Homo sapiens, UniProt Q06187); experiment: Kinase activity inhibition assay (HTRF TK Kit)
T5 construct: purchased Invitrogen PV3587
In short: as §1

BTK T474I = molecular target: T6, BTK T474I (Homo sapiens, UniProt Q06187, T474I); experiment: Kinase activity inhibition assay (HTRF TK Kit)
T6 construct: purchased SignalChem B10-12HH
In short: as §1

T6 sequence (Q06187 whole entry T474I): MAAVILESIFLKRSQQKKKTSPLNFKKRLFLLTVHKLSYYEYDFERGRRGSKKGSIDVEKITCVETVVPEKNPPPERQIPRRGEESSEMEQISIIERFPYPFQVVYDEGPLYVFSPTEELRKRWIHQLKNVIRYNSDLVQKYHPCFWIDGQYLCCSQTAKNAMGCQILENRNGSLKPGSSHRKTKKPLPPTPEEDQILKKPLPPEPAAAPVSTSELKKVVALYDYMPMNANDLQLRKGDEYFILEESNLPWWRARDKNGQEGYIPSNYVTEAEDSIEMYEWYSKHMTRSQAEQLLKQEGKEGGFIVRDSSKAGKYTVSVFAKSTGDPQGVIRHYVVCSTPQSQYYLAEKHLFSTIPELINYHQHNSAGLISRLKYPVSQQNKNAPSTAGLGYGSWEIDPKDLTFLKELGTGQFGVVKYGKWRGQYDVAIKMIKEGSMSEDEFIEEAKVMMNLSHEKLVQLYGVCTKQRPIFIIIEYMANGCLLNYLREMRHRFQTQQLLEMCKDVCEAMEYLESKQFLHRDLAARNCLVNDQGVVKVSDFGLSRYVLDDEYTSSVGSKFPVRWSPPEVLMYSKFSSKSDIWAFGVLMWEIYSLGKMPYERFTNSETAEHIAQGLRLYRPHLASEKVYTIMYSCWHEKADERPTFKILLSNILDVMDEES
T4 sequence (Q06187 whole entry C481S): as the sequence (Q06187 whole entry T474I) above, with I474T, C481S counted along it
T5 sequence (Q06187 whole entry): as the sequence (Q06187 whole entry T474I) above, with I474T counted along it
T3 sequence (P00533 669-1210 limits assumed): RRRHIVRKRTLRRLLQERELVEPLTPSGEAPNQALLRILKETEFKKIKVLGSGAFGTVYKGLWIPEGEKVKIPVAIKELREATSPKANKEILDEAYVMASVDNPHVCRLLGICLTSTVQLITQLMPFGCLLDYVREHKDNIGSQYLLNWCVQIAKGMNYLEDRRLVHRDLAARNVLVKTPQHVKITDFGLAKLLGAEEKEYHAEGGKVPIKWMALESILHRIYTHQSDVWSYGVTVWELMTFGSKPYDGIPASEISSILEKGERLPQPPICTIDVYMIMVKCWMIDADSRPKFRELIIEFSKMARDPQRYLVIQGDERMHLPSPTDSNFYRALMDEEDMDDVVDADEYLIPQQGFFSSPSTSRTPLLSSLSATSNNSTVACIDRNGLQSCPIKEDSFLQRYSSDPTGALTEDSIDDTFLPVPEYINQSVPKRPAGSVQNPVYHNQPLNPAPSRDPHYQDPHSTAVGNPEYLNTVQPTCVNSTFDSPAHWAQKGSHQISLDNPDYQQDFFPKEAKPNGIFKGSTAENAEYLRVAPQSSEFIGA

| Structure (SMILES) | IC50 (TEC) [nM] | IC50 (ITK) [nM] | IC50 (EGFR) [nM] | IC50 (BTK C481S) [nM] | IC50 (BTK kinase) [nM] | IC50 (BTK T474I) [nM] |
| --- | --- | --- | --- | --- | --- | --- |
| COc1ccc(F)cc1C(=O)NCc1ccc(-c2ncc(-c3ccc(CN4CCCCC4)cn3)c3[nH]nc(N)c23)cc1 [Example 66, N-(4-(3-amino-7-(5-(piperidin-1-ylmethyl)pyridin-2-yl)-1H-pyrazolo[4,3-c]pyridin-4-yl)benzyl)-5-fluoro-2-methoxybenzamide] | 5 to 50 | 50 to 500 | 5 to 50 | ≤ 1 | ≤ 1 | 5 to 50 |
| COc1ccc(F)cc1C(=O)NCc1ccc(-c2ncc(-c3ccc(CN4CCOCC4)cn3)c3[nH]nc(N)c23)cc1 [Example 67, N-(4-(3-amino-7-(5-(morpholinomethyl)pyridin-2-yl)-1H-pyrazolo[4,3-c]pyridin-4-yl)benzyl)-5-fluoro-2-methoxybenzamide] | 5 to 50 | 50 to 500 | 5 to 50 | ≤ 1 | ≤ 1 | 50 to 500 |
| COc1ccc(F)cc1C(=O)NCc1ccc(-c2ncc(-c3cc4ccccn4n3)c3[nH]nc(N)c23)cc1 [Example 69, N-(4-(3-amino-7-(pyrazolo[1,5-a]pyridin-2-yl)-1H-pyrazolo[4,3-c]pyridin-4-yl)benzyl)-5-fluoro-2-methoxybenzamide] | 1 to 5 | 50 to 500 | 5 to 50 | ≤ 1 | ≤ 1 | 5 to 50 |
| CCN1CCn2nc(-c3cnc(-c4ccc(CNC(=O)c5cc(F)ccc5OC)cc4)c4c(N)n[nH]c34)cc2C1 [Example 72, N-(4-(3-amino-7-(5-ethyl-4,5,6,7-tetrahydropyrazolo[1,5-a]pyrazin-2-yl)-1H-pyrazolo[4,3-c]pyridin-4-yl)benzyl)-5-fluoro-2-methoxybenzamide] | 5 to 50 | 50 to 500 | 5 to 50 | ≤ 1 | ≤ 1 | 5 to 50 |
| COc1ccc(F)cc1C(=O)NCc1ccc(-c2ncc(-c3ccc(N4CCN(C)CC4)cn3)c3[nH]nc(N)c23)cc1 [Example 73, N-(4-(3-amino-7-(5-(4-methylpiperazin-1-yl)pyridin-2-yl)-1H-pyrazolo[4,3-c]pyridin-4-yl)benzyl)-5-fluoro-2-methoxybenzamide] | 5 to 50 | 50 to 500 | 5 to 50 | ≤ 1 | ≤ 1 | 5 to 50 |
| COc1ccc(F)cc1C(=O)NCc1ccc(-c2ncc(-c3ccc(N4CCN(C)C[C@H]4C)cn3)c3[nH]nc(N)c23)cc1 [Example 75, (R)-N-(-4-(3-amino-7-(5-(2,4-dimethylpiperazin-1-yl)pyridin-2-yl) 1H-pyrazolo[4,3-c]pyridin-4-yl)benzyl)-5-fluoro-2-methoxybenzamide] | 5 to 50 | 5 to 50 | 5 to 50 | ≤ 1 | 1 to 5 | 5 to 50 |
| COc1ccc(F)cc1C(=O)NCc1ccc(-c2ncc(-c3ccc(N4CCOCC4)cn3)c3[nH]nc(N)c23)cc1 [Example 76, N-(4-(3-amino-7-(5-morpholinopyridin-2-yl)-1H-pyrazolo[4,3-c]pyridin-4-yl)benzyl)-5-fluoro-2-methoxybenzamide] | 1 to 5 | 50 to 500 | 5 to 50 | ≤ 1 | ≤ 1 | 1 to 5 |
| COc1ccc(F)cc1C(=O)NCc1ccc(-c2ncc(-c3nccn4cccc34)c3[nH]nc(N)c23)cc1 [Example 77, N-(4-(3-amino-7-(pyrrolo[1,2-a]pyrazin-1-yl)-1H-pyrazolo[4,3-c]pyridin-4-yl)benzyl)-5-fluoro-2-methoxybenzamide] | 5 to 50 | > 500 | 50 to 500 | 1 to 5 | 1 to 5 | 50 to 500 |
| COc1ccc(F)cc1C(=O)NCc1ccc(-c2ncc(-c3ccc(NC(=O)C4CC4)cn3)c3[nH]nc(N)c23)cc1 [Example 79, N-(4-(3-amino-7-(5-(cyclopropaneformamido)pyridin-2-yl)-1H-pyrazolo[4,3-c]pyridin-4-yl)benzyl)-5-fluoro-2-methoxybenzamide] | > 500 | > 500 | > 500 | 5 to 50 | 5 to 50 | > 500 |
| COc1ccc(F)cc1C(=O)NCc1ccc(-c2ncc(-c3cc(NC(=O)C4CC4)ccn3)c3[nH]nc(N)c23)cc1 [Example 80, N-(4-(3-amino-7-(4-(cyclopropaneformamido)pyridin-2-yl)-1H-pyrazolo[4,3-c]pyridin-4-yl)benzyl)-5-fluoro-2-methoxybenzamide] | 5 to 50 | > 500 | 50 to 500 | 1 to 5 | 1 to 5 | 50 to 500 |
| COc1ccc(F)cc1C(=O)NCc1ccc(-c2ncc(-c3ccc(F)cn3)c3[nH]nc(N)c23)c(F)c1 [Example 82, N-(4-(3-amino-7-(5-fluoropyridin-2-yl)-1H-pyrazolo[4,3-c]pyridin-4-yl)-3-fluorobenzyl)-5-fluoro-2-methoxybenzamide] | 50 to 500 | > 500 | > 500 | 1 to 5 | 1 to 5 | 50 to 500 |

The remaining lines, values ahead:

| IC50 (TEC) [nM] | IC50 (ITK) [nM] | IC50 (EGFR) [nM] | IC50 (BTK C481S) [nM] | IC50 (BTK kinase) [nM] | IC50 (BTK T474I) [nM] | Structure (SMILES) |
| --- | --- | --- | --- | --- | --- | --- |
| 5 to 50 | 50 to 500 | 5 to 50 | 1 to 5 | 1 to 5 | 5 to 50 | COc1ccc(F)cc1C(=O)NCc1ccc(-c2ncc(-c3ccc(CN4CCN(C)CC4)cn3)c3[nH]nc(N)c23)cc1 [Example 68, N-(4-(3-amino-7-(5-((4-methylpiperazin-1-yl)methyl)pyridin-2-yl)-1H-pyrazolo[4,3-c]pyridin-4-yl)benzyl)-5-fluoro-2-methoxybenzamide] |
| 5 to 50 | > 500 | 50 to 500 | 1 to 5 | 1 to 5 | 50 to 500 | COc1ccc(F)cc1C(=O)NCc1ccc(-c2ncc(-c3cnn4cccnc34)c3[nH]nc(N)c23)cc1 [Example 70, N-(4-(3-amino-7-(pyrazolo[1,5-a]pyrimidin-3-yl)-1H-pyrazolo[4,3-c]pyridin-4-yl)benzyl)-5-fluoro-2-methoxybenzamide] |
| 5 to 50 | 50 to 500 | 5 to 50 | ≤ 1 | 1 to 5 | 5 to 50 | COc1ccc(F)cc1C(=O)NCc1ccc(-c2ncc(-c3cc4n(n3)CCN(C)C4)c3[nH]nc(N)c23)cc1 [Example 71, N-(4-(3-amino-7-(5-methyl-4,5,6,7-tetrahydropyrazolo[1,5-a]pyrazin-2-yl)-1H-pyrazolo[4,3-c]pyridin-4-yl)benzyl)-5-fluoro-2-methoxybenzamide] |
| > 500 | 50 to 500 | 5 to 50 | 1 to 5 | 1 to 5 | 5 to 50 | COc1ccc(F)cc1C(=O)NCc1ccc(-c2ncc(-c3ccc(N4CCN(C)C[C@@H]4C)cn3)c3[nH]nc(N)c23)cc1 [Example 74, (S)-N-(-4-(3-amino-7-(5-(2,4-dimethylpiperazin-1-yl)pyridin-2-yl) 1H-pyrazolo[4,3-c]pyridin-4-yl)benzyl)-5-fluoro-2-methoxybenzamide] |
| 5 to 50 | 50 to 500 | 5 to 50 | ≤ 1 | ≤ 1 | 5 to 50 | COc1ccc(F)cc1C(=O)NCc1ccc(-c2ncc(-c3cc4cnccn4n3)c3[nH]nc(N)c23)cc1 [Example 78, N-(4-(3-amino-7-(pyrazolo[1,5-a]pyrazin-2-yl)-1H-pyrazolo[4,3-c]pyridin-4-yl)benzyl)-5-fluoro-2-methoxybenzamide] |
